The assay has as its target P70S6K (T412E mutant) (Homo sapiens (Human), UniProt P23443, T412E). The assay can be described thus: P70S6K enzyme assay. It counts as biochemical. To be noted: 3 nM P70S6K T412E mutant, 24 μM ATP, 1 μM FITC-AHA-AKRRRLSSLRA-OH substrate peptide, 90 min at 25° C. In short, it runs like this:
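P70S6K T412E mutant (3 nM) with 24 μM ATP and 1 μM FITC-labelled S6-derived peptide in Hepes pH 7.5, MgCl2, DTT, Brij buffer; 90 min at 25° C, stopped with EDTA. Phosphorylated product and substrate peptides separated by microfluidic mobility shift; IC50 values derived.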
Chain of P70S6K (T412E mutant) (P23443 whole entry T412E): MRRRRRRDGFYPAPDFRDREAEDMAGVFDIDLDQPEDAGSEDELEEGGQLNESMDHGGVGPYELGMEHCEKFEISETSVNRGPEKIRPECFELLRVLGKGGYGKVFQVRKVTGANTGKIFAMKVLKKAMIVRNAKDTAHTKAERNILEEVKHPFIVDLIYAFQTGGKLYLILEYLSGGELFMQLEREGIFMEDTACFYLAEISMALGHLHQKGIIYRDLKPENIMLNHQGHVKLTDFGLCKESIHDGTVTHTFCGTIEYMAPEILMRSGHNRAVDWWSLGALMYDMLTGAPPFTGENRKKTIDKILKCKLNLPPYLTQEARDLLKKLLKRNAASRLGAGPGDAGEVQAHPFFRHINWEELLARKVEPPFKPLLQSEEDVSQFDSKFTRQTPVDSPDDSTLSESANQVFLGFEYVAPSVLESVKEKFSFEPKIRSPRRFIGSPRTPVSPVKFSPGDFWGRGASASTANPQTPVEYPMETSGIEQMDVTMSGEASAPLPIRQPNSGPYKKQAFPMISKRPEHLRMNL
Regarding `CN(C)CCNC(c1ccc(F)cc1)C1CCN(c2ncnc(N)c2-c2ccc(F)cc2)CC1` (stereo not shown) [Example 150, 1-(6-amino-5-(4-fluorophenyl)pyrimidin-4-yl)(4-((4-fluorophenyl))methyl)-dimethylethane-1,2-diamine], the IC50 (as a rule, the concentration that inhibits the measured activity by half) is 33 nM.

`CCc1c(N)ncnc1N1CCN([C@@H](CN)c2ccc(Cl)cc2)CC1` [Example 180, 6-{4-[(R)-2-Amino-1-(4-chloro-phenyl)-ethyl]-piperazin-1-yl}-5-ethyl-pyrimidin-4-ylamine] returned a 50% inhibitory concentration (IC50) of 190 nM.

The compound `Cn1ccc(-c2c(N)ncnc2N2CCN(C(CNC(C)(C)C(C)(C)O)c3ccc(C(F)(F)F)cc3)CC2)n1` (stereo not shown) [Example 44, 3-[2-{4-[6-Amino-5-(1-methyl-1H-pyrazol-3-yl)-pyrimidin-4-yl]-piperazin-1-yl}-2-(4-trifluoromethyl-phenyl)-ethylamino]-2,3-dimethyl-butan-2-ol] showed a 50% inhibitory concentration (IC50) of 150 nM.

Consider `Nc1ncnc(N2CCN([C@@H](CN3CCC3)c3cccc(F)c3)CC2)c1-c1ccc(F)cc1` [Example 103, 6-{4-[(R)-2-Azetidin-1-yl-1-(3-fluoro-phenyl)-ethyl]-piperazin-1-yl}-5-(4-fluoro-phenyl)-pyrimidin-4-ylamine], for which the half-maximal inhibitory concentration (IC50) was found to be 920 nM.

With `NCC(c1ccc(C(F)(F)F)cc1)N1CCN(c2ncnc(N)c2OCC(F)(F)F)CC1` (stereo not shown) [Example 33, 6-(4-(2-amino-1-(4-(trifluoromethyl)phenyl)ethyl)piperazin-1-yl)-5-(2,2,2-trifluoroethoxy)pyrimidin-4-amine], 48.5 nM corresponded to half-maximal inhibition (IC50).

With `Nc1ncnc(N2CCN(C(CN3CCCC3)c3ccc(F)cc3)CC2)c1-c1ccc(F)cc1` (stereo in doubt) [Example 82, (R)5-(4-Fluorophenyl)-6{4-[1-(4-fluorophenyl)-2-pyrrolidin-1-yl-ethyl]-piperazin-1-yl}-pyrimidin-4-ylamine], the 50% inhibitory concentration (IC50) worked out at 29 nM.

Take `NCC(c1ccc(Cl)cc1)N1CCN(c2ncnc(N)c2-c2ccc(F)cc2)CC1` (stereo not shown) [Example 163, 6-{4-[2-Amino-1-(4-chloro-phenyl)-ethyl]-piperazin-1-yl}-5-(4-fluoro-phenyl)-pyrimidin-4-ylamine]: the half-maximal inhibitory concentration (IC50) worked out at 1.3 nM.

`Nc1ncnc(N2CCN(C(CCCN3CCC3)c3ccc(Cl)cc3)CC2)c1-c1ccc(F)cc1` (stereo not shown) [Example 113, 6-{4-[4-Azetidin-1-yl-1-(4-chloro-phenyl)-butyl]-piperazin-1-yl}-5-(4-fluoro-phenyl)-pyrimidin-4-ylamine]: the concentration for half-maximal inhibition (IC50) was above 1000 nM.

The compound `Nc1ncnc(N2CCC(Cc3ccc(Cl)cc3)CC2)c1Br` [Example 46, 5-Bromo-6{4-(4-chlorobenzyl)-piperidin-1-yl}pyrimidin-4-amine] came in with a 50% inhibitory concentration (IC50) of 630 nM.

Take `Cn1ccc(-c2c(N)ncnc2N2CCN(C(CN)c3ccc(C(F)(F)F)cc3)CC2)n1` (stereo not shown) [Example 43, 6-{4-[2-Amino-1-(4-trifluoromethyl-phenyl)-ethyl]-piperazin-1-yl}-5-(1-methyl-1H-pyrazol-3-yl)-pyrimidin-4-ylamine]: the IC50 amounted to 98 nM.

`Cn1cc(-c2c(N)ncnc2N2CCN(C(CN)c3ccc(C(F)(F)F)cc3)CC2)cn1` (stereo not shown) [Example 40, 6-{4-[2-Amino-1-(4-trifluoromethyl-phenyl)-ethyl]-piperazin-1-yl}-5-(1-methyl-1H-pyrazol-4-yl)-pyrimidin-4-ylamine] registered a concentration for half-maximal inhibition (IC50) of 11 nM.

As for `CCOC(=O)Cn1cc(-c2c(N)ncnc2N2CCN(C(CN3CCC3)c3ccc(Cl)c(Cl)c3)CC2)cn1` (stereo not shown) [Example 117, [4-(4-Amino-6-{4-[2-azetidin-1-yl-1-(3,4-dichloro-phenyl)-ethyl]-piperazin-1-yl}-pyrimidin-5-yl)-pyrazol-1-yl]-acetic acid ethyl ester], the half-inhibitory concentration (IC50) is 24000 nM.

Compound `NCC(c1ccc(F)c(C(F)(F)F)c1)N1CCN(c2ncnc(N)c2-c2ccc(F)cc2)CC1` (stereo not shown) [Example 155, 6-{4-[2-Amino-1-(4-fluoro-3-trifluoromethyl-phenyl)-ethyl]-piperazin-1-yl}-5-(4-fluoro-phenyl)-pyrimidin-4-ylamine] had a 50% inhibitory concentration (IC50) of 14 nM.

In the case of `COc1ccc([C@H](CCO)NC(=O)C2(N)CCN(c3ncnc(N)c3C#N)CC2)cc1` [Example 229, 4-Amino-1-(6-amino-5-cyano-pyrimidin-4-yl)-piperidine-4-carboxylic acid [(S)-3-hydroxy-1-(4-methoxy-phenyl)-propyl]-amide], the IC50 was found to be 450 nM.

The compound `NC(=O)c1c(N)ncnc1N1CCC(N)(CNC(=O)c2ccc(F)cc2F)C1` (stereo not shown) [Example 197, 4-Amino-6-{3-amino-3-[(2,4-difluoro-benzoylamino)-methyl]-pyrrolidin-1-yl}-pyrimidine-5-carboxamide] yielded an IC50 of 530 nM.

In turn, `Nc1ncnc(N2CCC(N)(CNC(=O)c3ccc(F)cc3F)C2)c1-c1ccc(C(F)(F)F)cc1` (stereo not shown) [Example 202, N-{3-Amino-1-[6-amino-5-(4-trifluoromethyl-phenyl)-pyrimidin-4-yl]-pyrrolidin-3-ylmethyl}-2,4-difluoro-benzamide] came in with an IC50 of 9.1 nM.

`NC[C@@H](c1ccc(C(F)(F)F)cc1)N1CCN(c2ncnc(N)c2-c2ccc(F)cc2)CC1` [Example 4, 6-{4-[(R)-2-Amino-1-(4-trifluoromethyl-phenyl)-ethyl]-piperazin-1-yl}-5-(4-fluoro-phenyl)-pyrimidin-4-ylamine] yielded an IC50 of 4.5 nM.

`COc1c(N)ncnc1N1CCN(C(CN)c2ccc(C(F)(F)F)cc2)CC1` (stereo not shown) [Example 31, 6-(4-(2-amino-1-(4-(trifluoromethyl)phenyl)ethyl)piperazin-1-yl)-5-methoxypyrimidin-4-amine] came in with an IC50 of 40 nM.

Compound `CCc1c(N)ncnc1N1CCC(N)(C(=O)N[C@@H](CCO)c2ccc(Cl)cc2)CC1` [Example 214, 4-Amino-1-(6-amino-5-ethyl-pyrimidin-4-yl)-piperidine-4-carboxylic acid [(S)-1-(4-chloro-phenyl)-3-hydroxy-propyl]-amide] gave an IC50 of 450 nM.

The compound `Nc1ncnc(N2CCN(C(CN3CCCCC3)c3cccc(C(F)(F)F)c3)CC2)c1Br` (stereo not shown) [Example 70, 5-Bromo-6{4-[1-(3-trifluoromethyl-phenyl)-2-piperidin-1-yl-ethyl]-piperazin-1-yl}-pyrimidin-4-ylamine] yielded a concentration for half-maximal inhibition (IC50) above 1000 nM.

Compound `Nc1ncnc(N2CCN(Cc3cc(Cl)c(Cl)cc3O)CC2)c1-c1ccc(F)cc1` [Example 60, 2-((4-(6-amino-5-(4-fluorophenyl)pyrimidin-4-yl)piperazin-1-yl)methyl)-4,5-dichlorophenol] returned an IC50 of 74 nM.

`Nc1ncnc(N2CCC(C(O)c3ccc(-c4ccc(F)cc4)cc3)CC2)c1-c1ccc(F)cc1` (stereo not shown) [Example 139] showed an IC50 of 17 nM.

The compound `NCC(c1ccc(Cl)c(F)c1)N1CCN(c2ncnc(N)c2-c2cn[nH]c2)CC1` (stereo not shown) [Example 187, 6-(4-(2-amino-1-(4-chloro-3-fluorophenyl)ethyl)piperazin-1-yl)-5-(1H-pyrazol-4-yl)pyrimidin-4-amine] displayed a concentration for half-maximal inhibition (IC50) of 6.1 nM.

`Nc1ncnc(N2CCN(C(CN3CCC3)c3ccc(Cl)c(F)c3)CC2)c1-c1cn[nH]c1` (stereo not shown) [Example 121, 6-{4-[2-Azetidin-1-yl-1-(4-chloro-3-fluoro-phenyl)-ethyl]-piperazin-1-yl}-5-(1H-pyrazol-4-yl)-pyrimidin-4-ylamine] registered an IC50 of 900 nM.

Turning to `Nc1ncnc(N2CCC(C(O)c3ccc(F)cc3)CC2)c1-c1ccc(F)cc1` (stereo not shown) [Example 140], the IC50 is 4.6 nM.

For the origin of these results see patent publication US9321760B2 (Merck Patent GmbH, priority 2011, dated 2016).
